Patent US20110112100A1, “Hepatitis C Virus Inhibitors” (priority 2009, published 2011)
Structures can show the parent of a compound that is named as a salt. Where two headings read alike, the source gives them in different places.

Legend:
1b (con1) replicon cells = test: HCV 1b replicon inhibitory activity (luciferase, Britelite Plus); format: cell-based, hepatitis C virus; settings: read-out: IC50 value (95% Confidence Intervals) pM Replicon 1B assay
In short: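 1b (con1) luciferase replicon cells in DMEM + 10% FCS were exposed to 1-in-3 DMSO compound dilutions for 48 h at 37° C, 5% CO2. Luminescence was read 1-15 min after Britelite Plus addition; EC50 came from log concentration-response curves.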

1a-H77 replicon cells = test: HCV 1a replicon inhibitory activity (Renilla luciferase); format: cell-based, hepatitis C virus; settings: read-out: IC50 value (95% Confidence Intervals) pM Replicon 1A assay
In short: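 Replicon cells in DMEM + 10% FCS incubated 48 hours at 37° C., 5% CO2 with 1-in-3 serial dilutions of compound prepared in DMSO. Replication read as Renilla luciferase luminescence after lysis. EC50 taken from log concentration-response curves.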

[1] = geometric mean, 95% confidence intervals in parentheses, 48 hours, medium with 10% FCS
[2] = Hepatitis C virus, geometric mean, 95% confidence intervals in parentheses, 48 hours, medium with 10% FCS

SMILES: COC(=O)NC(C(=O)N1CCC[C@H]1c1ncc(-c2ccc3nc(-c4ccc(-c5c[nH]c([C@@H]6CCCN6C(=O)[C@@H](NC(=O)OC)C(C)C)n5)cc4)cnc3c2)[nH]1)C1CCCC1 (stereo partly drawn) [Example 66, Methyl {(2S)-1-[(2S)-2-{4-[4-(6-{2-[(2S)-1-{cyclopentyl[(methoxycarbonyl)amino]acetyl}pyrrolidin-2-yl]-1H-imidazol-5-yl}quinoxalin-2-yl)phenyl]-1H-imidazol-2-yl}pyrrolidin-1-yl]-3-methyl-1-oxobutan-2-yl} carbamate trifluoroacetic acid salt]
- IC50 (1b (con1) replicon cells; [1]): 21.7 pM
- IC50 (1a-H77 replicon cells; [1]): 1720 pM

SMILES: COC(=O)N[C@H](C(=O)N1CCC[C@H]1c1nc(-c2ccc(-c3cnc4cc(-c5cnc([C@@H]6CCCN6C(=O)[C@@H](COCc6ccccc6)NC(=O)OC)[nH]5)ccc4n3)cc2)c[nH]1)C(C)C [Example 63, Methyl {(2S)-1-[(2S)-2-{4-[4-(6-{2-[(2S)-1-{(2R)-3-(benzyloxy)-2-[(methoxycarbonyl)amino]propanoyl}pyrrolidin-2-yl]-1H-imidazol-5-yl}quinoxalin-2-yl)phenyl]-1H-imidazol-2-yl}pyrrolidin-1-yl]-3-methyl-1-oxobutan-2-yl}carbamate trifluoroacetic acid salt]
- IC50 (1b (con1) replicon cells; Hepatitis C virus, 48 h): 400 pM
- IC50 (1a-H77 replicon cells; Hepatitis C virus, 48 h): 4770 pM

SMILES: COC(=O)N[C@H](C(=O)N1CCC[C@H]1c1nc(-c2ccc(-c3nc4ccc(-c5c[nH]c([C@@H]6CCCN6C(=O)[C@@H](NC(=O)OC)C(C)C)n5)cc4nc3OC)cc2)c[nH]1)C(C)C [Example 17, Methyl {(2S)-1-[(2S)-2-{4-[4-(3-methoxy-6-{2-[(2S)-1-{(2S)-2-[(methoxycarbonyl)amino]-3-methylbutanoyl}pyrrolidin-2-yl]-1H-imidazol-4-yl}quinoxalin-2-yl)phenyl]-1H-imidazol-2-yl}pyrrolidin-1-yl]-3-methyl-1-oxobutan-2-yl}carbamate]
- IC50 (1b (con1) replicon cells; [2]): 22.3 pM
- IC50 (1a-H77 replicon cells; [2]): 560 pM

SMILES: COC(=O)N[C@H](C(=O)N1CCC[C@H]1c1nc(-c2ccc(-c3cnc4cc(-c5cnc([C@@H]6CCCN6C(=O)[C@H](NC(=O)OC)[C@@H](C)OC(C)(C)C)[nH]5)ccc4n3)cc2)c[nH]1)C(C)C [Example 75, Methyl {(2S)-1-[(2S)-2-{4-[4-(6-{2-[(2S)-1-{(2R,3R)-3-tert-butoxy-2-[(methoxycarbonyl)amino]butanoyl}pyrrolidin-2-yl]-1H-imidazol-5-yl}quinoxalin-2-yl)phenyl]-1H-imidazol-2-yl}pyrrolidin-1-yl]-3-methyl-1-oxobutan-2-yl}carbamate trifluoroacetic acid salt]
- IC50 (1b (con1) replicon cells; Hepatitis C virus, 48 h): 143 pM
- IC50 (1a-H77 replicon cells; Hepatitis C virus, 48 h): 4190 pM

SMILES: CCCC[C@@H](NC(=O)OC)C(=O)N1CCC[C@H]1c1ncc(-c2ccc3nc(-c4ccc(-c5c[nH]c([C@@H]6CCCN6C(=O)[C@@H](NC(=O)OC)C(C)C)n5)cc4)cnc3c2)[nH]1 [Example 78, Methyl {(2R)-1-[(2S)-2-{5-[2-(4-{2-[(2S)-1-{(2S)-2-[(methoxycarbonyl)amino]-3-methylbutanoyl}pyrrolidin-2-yl]-1H-imidazol-4-yl}phenyl)quinoxalin-6-yl]-1H-imidazol-2-yl}pyrrolidin-1-yl]-1-oxohexan-2-yl}carbamate trifluoroacetic acid salt]
- IC50 (1b (con1) replicon cells; Hepatitis C virus, 48 h): 45.5 pM
- IC50 (1a-H77 replicon cells; Hepatitis C virus, 48 h): 443 pM

SMILES: COC(=O)N[C@H](C(=O)N1CCC[C@H]1c1nc(-c2ccc(-c3ccc4cc(-c5cnc([C@@H]6CCCN6C(=O)[C@@H](NC(=O)OC)C(C)C)[nH]5)ccc4c3)nc2)c[nH]1)C(C)C [Example 6, Methyl {(2S)-1-[(2S)-2-{5-[6-(5-{2-[(2S)-1-{(2S)-2-[(methoxycarbonyl)amino]-3-methyl-butanoyl}pyrrolidin-2-yl]-1H-imidazol-4-yl}pyridin-2-yl)naphthalen-2-yl]-1H-imidazol-2-yl}pyrrolidin-1-yl]-3-methyl-1-oxobutan-2-yl}carbamate]
- IC50 (1b (con1) replicon cells; [2]): 3.51 pM
- IC50 (1a-H77 replicon cells; [2]): 56.4 pM

SMILES: COC(=O)N[C@H](C(=O)N1CCC[C@H]1c1nc(-c2ccc(-c3cc4ccc(-c5cnc([C@@H]6CCCN6C(=O)[C@@H](NC(=O)OC)C(C)C)[nH]5)cc4cn3)nc2)c[nH]1)C(C)C [Example 11, Methyl {(2S)-1-[(2S)-2-{4-[6-(7-{2-[(2S)-1-{(2S)-2-[(methoxycarbonyl)amino]-3-methyl-butanoyl}pyrrolidin-2-yl]-1H-imidazol-5-yl}isoquinolin-3-yl)pyridin-3-yl]-1H-imidazol-2-yl}pyrrolidin-1-yl]-3-methyl-1-oxobutan-2-yl}carbamate]
- IC50 (1b (con1) replicon cells; [2]): 20.8 pM
- IC50 (1a-H77 replicon cells; [2]): 42.1 pM

SMILES: CCC[C@@H](NC(=O)OC)C(=O)N1CCC[C@H]1c1ncc(-c2ccc3nc(-c4ccc(-c5c[nH]c([C@@H]6CCCN6C(=O)[C@@H](NC(=O)OC)C(C)C)n5)cc4)cnc3c2)[nH]1 [Example 77, Methyl {(2R)-1-[(2S)-2-{5-[2-(4-{2-[(2S)-1-{(2S)-2-[(methoxycarbonyl)amino]-3-methylbutanoyl}pyrrolidin-2-yl]-1H-imidazol-4-yl}phenyl)quinoxalin-6-yl]-1H-imidazol-2-yl}pyrrolidin-1-yl]-1-oxopentan-2-yl}carbamate trifluoroacetic acid salt]
- IC50 (1b (con1) replicon cells; Hepatitis C virus, 48 h): 31.4 pM
- IC50 (1a-H77 replicon cells; Hepatitis C virus, 48 h): 186 pM

SMILES: COC(=O)N[C@H](C(=O)N1CCC[C@H]1c1ncc(-c2ccc(-c3ccc4nc(-c5cnc([C@@H]6CCCN6C(=O)[C@@H](NC(=O)OC)C(C)C)[nH]5)cnc4c3)cc2)[nH]1)C(C)C [Example 5, Methyl {(2S)-1-[(2S)-2-{5-[4-(2-{2-[(2S)-1-{(2S)-2-[(methoxycarbonyl)amino]-3-methyl-butanoyl}pyrrolidin-2-yl]-1H-imidazol-5-yl}quinoxalin-6-yl)phenyl]-1H-imidazol-2-yl}pyrrolidin-1-yl]-3-methyl-1-oxobutan-2-yl}carbamate]
- IC50 (1b (con1) replicon cells; [2]): 8.12 pM
- IC50 (1a-H77 replicon cells; [2]): 387 pM

SMILES: COC(=O)N[C@H](C(=O)N1CCC[C@H]1c1ncc(-c2ccc(-c3cnc4cc(-c5cnc([C@@H]6CCCN6C(=O)[C@@H](NC(=O)OC)C(C)C)[nH]5)ccc4n3)cc2)[nH]1)C(C)C [Example 4, Methyl {(2S)-1-[(2S)-2-{5-[4-(6-{2-[(2S)-1-{(2S)-2-[(methoxycarbonyl)amino]-3-methylbutanoyl}pyrrolidin-2-yl]-1H-imidazol-5-yl}quinoxalin-2-yl)phenyl]-1H-imidazol-2-yl}pyrrolidin-1-yl]-3-methyl-1-oxobutan-2-yl}carbamate]
- IC50 (1b (con1) replicon cells; [2]): 7.7 pM
- IC50 (1a-H77 replicon cells; [2]): 17.4 pM

SMILES: COC(=O)N[C@H](C(=O)N1CCC[C@H]1c1nc(-c2ccc(-c3cnc4cc(-c5cnc([C@@H]6CCCN6C(=O)CNC(=O)c6cnc(C)cn6)[nH]5)ccc4n3)cc2)c[nH]1)C(C)C [Example 41, Methyl {(2S)-3-methyl-1-[(2S)-2-{4-[4-(6-{2-[(2S)-1-{N-[(5-methylpyrazin-2-yl)carbonyl]glycyl}pyrrolidin-2-yl]-1H-imidazol-5-yl}quinoxalin-2-yl)phenyl]-1H-imidazol-2-yl}pyrrolidin-1-yl]-1-oxobutan-2-yl}carbamate trifluoroacetic acid salt]
- IC50 (1b (con1) replicon cells; Hepatitis C virus, 48 h): 128 pM
- IC50 (1a-H77 replicon cells; Hepatitis C virus, 48 h): 1950 pM

SMILES: COC(=O)N[C@H](C(=O)N1CCC[C@H]1c1nc(-c2ccc(-c3cnc4cc(-c5cnc([C@@H]6CCCN6C(=O)[C@@H](CC(C)C)NC(=O)OC)[nH]5)ccc4n3)cc2)c[nH]1)C(C)C [Example 54, Methyl {(2R)-1-[(2S)-2-{5-[2-(4-{2-[(2S)-1-{(2S)-2-[(methoxycarbonyl)amino]-3-methylbutanoyl}pyrrolidin-2-yl]-1H-imidaozl-4-yl}phenyl)quinoxalin-6-yl]-1H-imidazol-2-yl}pyrrolidin-1-yl]-4-methyl-1-oxopentan-2-yl}carbamate trifluoroacetic acid salt]
- IC50 (1b (con1) replicon cells; [1]): 14.9 pM
- IC50 (1a-H77 replicon cells; [1]): 61.2 pM
